Measured values as given in the supplement of paper PMC13380429.

Columns and labels:
[1] = tested on: Caco-2; experiment: cell viability relative to DMSO; higher = less toxic; details: 72 h
[2] = tested on: Calu-3; experiment: as above; details: 72 h
[3] = tested on: HepG2; experiment: as above; details: 72 h
[4] = tested on: U2OS; experiment: as above; details: 72 h
[5] = tested on: Vero E6; experiment: as above; details: 72 h
[6] = tested on: Caco-2; experiment: relative viability EC50 (midpoint between 100% and the lowest measured viability); higher = less toxic; details: 72 h
[7] = tested on: Calu-3; experiment: as above; details: 72 h
[8] = tested on: HepG2; experiment: as above; details: 72 h
[9] = tested on: U2OS; experiment: as above; details: 72 h
[10] = tested on: Vero E6; experiment: as above; details: 72 h
[11] = tested on: Caco-2; experiment: drug sensitivity score (DSS) for viability; higher = more toxic; extreme values may be limits of the assay; details: 72 h
[12] = tested on: Calu-3; experiment: as above; details: 72 h
[13] = tested on: HepG2; experiment: as above; details: 72 h
[14] = tested on: U2OS; experiment: as above; details: 72 h
[15] = tested on: Vero E6; experiment: as above; details: 72 h
[16] = tested on: A549-ACE2 infected with SARS-CoV-2; experiment: cell count relative to DMSO; higher = less toxic; details: 24 h
[17] = tested on: A549-ACE2 infected with SARS-CoV-2; experiment: SARS-CoV-2 infection rate relative to DMSO; higher = more infection; details: 24 h
[18] = tested on: A549-ACE2; experiment: phospholipidosis EC50; higher = less potent phospholipidosis inducer
[19] = tested on: A549-ACE2; experiment: drug-induced phospholipidosis relative to tamoxifen; higher = more phospholipidosis
[20] = tested on: A549-ACE2 infected with SARS-CoV-2; experiment: morphology score (similarity to uninfected cells); higher = more like uninfected cells; details: 24 h

Clc1cccc(Cl)c1CSc1nnc(-c2cnccn2)s1 [yoda-1]
cell viability [%]
Details	[1]	[2]	[3]	[4]	[5]
1 nM	100	98.8	84.7	101	97.4
10 nM	95.3	91.1	100	98.9	100
100 nM	94.7	97	97.6	90.6	94.2
1000 nM	92.6	98.8	102	92	96
10000 nM	79.6	91	91	93	94

Details	drug sensitivity score	relative viability EC50 [µM]
[6]	–	> 10
[7]	–	> 10
[8]	–	> 10
[9]	–	> 10
[10]	–	> 10
[11]	0.9	–
[12]	0	–
[13]	0	–
[14]	0	–
[15]	0	–

c1ccc(C(O[C@@H]2CCCN(CCc3ccc4c(c3)OCO4)C2)c2ccccc2)cc1 [zamifenacin]
cell viability [%]
Details	[1]	[2]	[3]	[4]	[5]
1 nM	94.8	104	92.6	104	96.9
10 nM	91.7	99.2	107	99.6	102
100 nM	98.6	97	92.7	98.8	96.7
1000 nM	98.3	102	108	98.3	98.3
10000 nM	92.5	92.2	92.1	96	94.9

Details	drug sensitivity score	relative viability EC50 [µM]
[6]	–	> 10
[7]	–	> 10
[8]	–	> 10
[9]	–	> 10
[10]	–	> 10
[11]	0	–
[12]	0	–
[13]	0	–
[14]	0	–
[15]	0	–

COc1nc(C)cnc1NS(=O)(=O)c1cccnc1-c1ccc(-c2nnco2)cc1 [zibotentan]
cell viability [%]
Details	[1]	[2]	[3]	[4]	[5]
1 nM	104	105	99.8	95.7	102
10 nM	95.2	102	98	99.4	96.5
100 nM	94.9	98.9	102	97.7	94.4
1000 nM	101	104	101	103	99.3
10000 nM	94.9	111	107	105	102

Details	drug sensitivity score	relative viability EC50 [µM]
[6]	–	> 10
[7]	–	> 10
[8]	–	> 10
[9]	–	> 10
[10]	–	> 10
[11]	0	–
[12]	0	–
[13]	0	–
[14]	0	–
[15]	0	–

c1cc(CN2CCCCC2)cc(OCCCNc2nc3ccccc3s2)c1 [zolantidine]
Details	SARS-CoV-2 infection rate [%]	cell count [%]	cell viability [%]	morphology score	phospholipidosis EC50 [µM]
[1], 1 nM	–	–	104	–	–
[1], 10 nM	–	–	93.4	–	–
[1], 100 nM	–	–	99.7	–	–
[1], 1000 nM	–	–	96.6	–	–
[1], 10000 nM	–	–	86.4	–	–
[2], 1 nM	–	–	89.8	–	–
[2], 10 nM	–	–	88.3	–	–
[2], 100 nM	–	–	108	–	–
[2], 1000 nM	–	–	98.1	–	–
[2], 10000 nM	–	–	84.9	–	–
[3], 1 nM	–	–	99.1	–	–
[3], 10 nM	–	–	91.8	–	–
[3], 100 nM	–	–	97.6	–	–
[3], 1000 nM	–	–	102	–	–
[3], 10000 nM	–	–	89.5	–	–
[4], 1 nM	–	–	101	–	–
[4], 10 nM	–	–	95.9	–	–
[4], 100 nM	–	–	104	–	–
[4], 1000 nM	–	–	97.6	–	–
[4], 10000 nM	–	–	94.6	–	–
[5], 1 nM	–	–	90.2	–	–
[5], 10 nM	–	–	103	–	–
[5], 100 nM	–	–	98.3	–	–
[5], 1000 nM	–	–	102	–	–
[5], 10000 nM	–	–	94.4	–	–
[16], 0.3 µM	–	101	–	–	–
[16], 3 µM	–	118	–	–	–
[16], 10 µM	–	119	–	–	–
[16], 30 µM	–	124	–	–	–
[17], 0.3 µM	98	–	–	–	–
[17], 3 µM	50	–	–	–	–
[17], 10 µM	20	–	–	–	–
[17], 30 µM	12	–	–	–	–
[18], 24 h	–	–	–	–	7.87
[18], 48 h	–	–	–	–	9.34
[18], 72 h	–	–	–	–	12.4
[20], 0.3 µM	–	–	–	-0.12	–
[20], 3 µM	–	–	–	0.76	–
[20], 10 µM	–	–	–	0.9	–
[20], 30 µM	–	–	–	0.62	–

drug-induced phospholipidosis [%], [19]
Details	0.3 µM	0.833333 µM	3.33333 µM	6.66667 µM	10 µM	30 µM
24 h	3.01	2.56	9.9	36.9	64.3	91.7
48 h	3.2	2.85	4.98	28.7	56.2	97.1
72 h	5.43	2.63	7.7	25.4	50.3	116

Details	drug sensitivity score	relative viability EC50 [µM]
[6]	–	> 10
[7]	–	> 10
[8]	–	> 10
[9]	–	> 10
[10]	–	> 10
[11]	0.2	–
[12]	0.4	–
[13]	0	–
[14]	0	–
[15]	0	–
